Data taken from patent publication US9456599B2, “Adjuvants” (SYNGENTA LIMITED, priority 2012, dated 2016).

Experiments:
Septoria tritici [1] = assay: Septoria tritici on wheat, epoxiconazole with compound E (Example 9); assay type: in vivo
Procedure: (§1) Wheat plants were inoculated with the fungus Septoria tritici. Four days after inoculation the plants were sprayed with a diluted suspension concentrate formulation of the fungicide epoxiconazole at rates of 3, 10, 30 and 100 mg of the fungicide per liter of spray solution, using a laboratory track sprayer which delivered the spray at a rate of 200 liters per hectare. Spray tests were also carried out with a diluted suspension concentrate additionally comprising the carbonate compound E (see Table 7) added to the spray solution at a rate of 0.1% v/v, based on the quantity of spray liquor. The leaves of the plants were assessed visually 12 days after the spray application and the damage was expressed as the percentage of the leaf area infected. Each spray test was replicated four times across the four application rates.
(§2) The results shown in Table 14 below are mean averages over the four rates of epoxiconazole and the four replicates, and are compared to the efficacy of epoxiconazole in the absence of an adjuvant, and epoxiconazole in the presence of oleyl ethoxylate 20EO butyl end capped adjuvant used as a standard adjuvant for comparative purposes (at 0.1% by volume).

Abutilon theophrasti [2] = assay: Glasshouse post-emergence spray test, fomesafen with adjuvant (Example 2); assay type: in vivo; settings: fomesafen 60 or 120 g/ha, carbonate 0.2% v/v or Turbocharge 0.5% v/v; mean over two rates, three replicates, 14 and 21 days
Procedure: (§3) Setaria viridis, Chenopodium album, Abutilon theophrasti and Ipomea hederacea seeds were sown into standard soil in pots and cultivated under controlled conditions in a glasshouse (at 24/18° C. day/night; 16 hours light; 65% humidity).
(§4) When the plants were at the vegetative stage of 2-4 leaves they were sprayed with an aqueous spray solution containing the herbicide fomesafen and 0.2% v/v of one of the carbonates B92-P-Carbonate, B92-B-Carbonate and B96-P-Carbonate (see Table 1).
(§5) The spray solution was applied with a cabinet tracksprayer with a flat fan nozzle (Teejet 11002VS) and an application volume of 200 liter/ha (at 2 bar). Fomesafen was applied at either 60 or 120 grams of pesticide per hectare.
(§6) The test plants were then grown on, in a glasshouse under controlled conditions (at 24/18° C. day/night; 16 hours light; 65% humidity) and watered twice a day. After 14 and 21 days the test was evaluated for general crop injury (100% equals total damage to a plant; 0% equals no damage to a plant).
(§7) The results shown in Table 4 below are mean averages over the two rates of fomesafen, three replicates and the two assessment timings, and are compared to the efficacy of fomesafen in the absence of an adjuvant, and fomesafen in the presence of the commercially available tank-mix adjuvant, Turbocharge®, which was used at an application rate of 0.5% by volume of the spray tank.

Chenopodium album [3] = assay: as above; assay type: in vivo; settings: fomesafen 60 or 120 g/ha, carbonate 0.2% v/v or Turbocharge 0.5% v/v; mean over two rates, three replicates, 14 and 21 days
Procedure: as §3, §4, §5, §6, §7

Setaria viridis [4] = assay: as above; assay type: in vivo; settings: fomesafen 60 or 120 g/ha, carbonate 0.2% v/v or Turbocharge 0.5% v/v; mean over two rates, three replicates, 14 and 21 days
Procedure: as §3, §4, §5, §6, §7

[5] = tested on: Setaria viridis, Chenopodium album, Abutilon theophrasti and Ipomea hederacea; assay: Glasshouse post-emergence spray test, fomesafen with adjuvant (Example 2), mean across species; assay type: in vivo; settings: fomesafen 60 or 120 g/ha, carbonate 0.2% v/v or Turbocharge 0.5% v/v; 14 and 21 days; Tukey HSD letter
Procedure: as §3, §4, §5, §6, §7

COMBEN = assay: Glasshouse post-emergence spray test, fomesafen with adjuvant (Example 2); assay type: in vivo, Ipomea hederacea; settings: fomesafen 60 or 120 g/ha, carbonate 0.2% v/v or Turbocharge 0.5% v/v; mean over two rates, three replicates, 14 and 21 days
[6] = tested on: Setaria viridis, Chenopodium album, Abutilon theophrasti and Digitaria sanguinalis; assay: Glasshouse post-emergence spray test, nicosulfuron with adjuvant (Example 1), mean across species; assay type: in vivo; settings: nicosulfuron 30 or 60 g/ha, adjuvant 0.2% by volume; 17 and 21 days; Tukey HSD letter
Procedure: (§8) Setaria viridis, Chenopodium album, Abutilon theophrasti and Digitaria sanguinalis seeds were sown into standard soil in pots and cultivated under controlled conditions in a glasshouse (at 24/18° C. day/night; 16 hours light; 65% humidity).
(§9) When the plants were at the vegetative stage of 3-4 leaves they were sprayed with an aqueous spray solution containing the herbicide nicosulfuron and 0.2% v/v of one of the carbonates, B92-P-Carbonate, B92-B-Carbonate and B96-P-Carbonate (see Table 1).
(§10) Each spray solution was applied with a cabinet tracksprayer with a flat fan nozzle (Teejet 11002VS) and an application volume of 200 liter/ha (at 2 bar). Nicosulfuron was applied at either 30 or 60 grams of pesticide per hectare.
(§11) The test plants were then grown on, in a glasshouse under controlled conditions (at 24/18° C. day/night; 16 hours light; 65% humidity) and watered twice a day. After 17 and 21 days the test was evaluated for general crop injury (100% equals total damage to a plant; 0% equals no damage to a plant).
(§12) The results shown in Table 3 below are mean averages over the two rates of nicosulfuron, three replicates and the two assessment timings, and are compared to the efficacy of nicosulfuron in the absence of an adjuvant and nicosulfuron in the presence of the commercially available tank-mix adjuvant, Atplus411F® (at 0.2% by volume).

Abutilon theophrasti [7] = assay: Glasshouse post-emergence spray test, nicosulfuron with adjuvant (Example 1); assay type: in vivo; settings: nicosulfuron 30 or 60 g/ha, adjuvant 0.2% by volume; mean over two rates, three replicates, 17 and 21 days
Procedure: as §8, §9, §10, §11, §12

Digitaria sanguinalis = assay: as above; assay type: in vivo; settings: nicosulfuron 30 or 60 g/ha, adjuvant 0.2% by volume; mean over two rates, three replicates, 17 and 21 days
Procedure: as §8, §9, §10, §11, §12

Chenopodium album [8] = assay: as above; assay type: in vivo; settings: nicosulfuron 30 or 60 g/ha, adjuvant 0.2% by volume; mean over two rates, three replicates, 17 and 21 days
Procedure: as §8, §9, §10, §11, §12

Setaria viridis [9] = assay: as above; assay type: in vivo; settings: nicosulfuron 30 or 60 g/ha, adjuvant 0.2% by volume; mean over two rates, three replicates, 17 and 21 days
Procedure: as §8, §9, §10, §11, §12

[10] = tested on: Setaria viridis, Chenopodium album, Abutilon theophrasti and Digitaria sanguinalis; assay: Glasshouse spray test, nicosulfuron with carbonates A-E (Example 5), mean over four plant species; assay type: in vivo; settings: for Mean % Phytotoxicity: Atplus 411F 0.5% by volume, 22 days, mean over rates, replicates, four species; for Adjuvant effect on efficacy of nicosulfuron (in words): 0.2% v/v carbonate with nicosulfuron, Tables 8 and 9
Procedure: as §8
When the plants were at the vegetative stage of 3-4 leaves they were sprayed with an aqueous spray solution containing the herbicide nicosulfuron and 0.2% v/v of one of the carbonates A, B, C, D and E (see Table 7).
Each spray solution was applied with a cabinet tracksprayer with a flat fan nozzle (Teejet 11002VS) and an application volume of 200 liter/ha (at 2 bar). Nicosulfuron was applied at either 15 or 60 grams of pesticide per hectare.
as §6, with “22” for “14 and 21”, “injury or phytotoxicity” for “injury”
as §12, with “8” for “3”, “nicosulfuron, the” for “nicosulfuron,”, “four plant species,” for “two assessment timings,”, “0.5%” for “0.2%”

[11] = tested on: Brachiaria plantaginea, Digitaria sanguinalis, Commelina benghalensis and Polygonum convulvulus; assay: Glasshouse spray test, mesotrione with carbonates A-D (Example 6), mean over four plant species; assay type: in vivo; settings: 0.2% v/v carbonate with mesotrione, Table 10
Procedure: Brachiaria plantaginea, Digitaria sanguinalis, Commelina benghalensis and Polygonum convulvulus seeds were sown into standard soil in pots and cultivated under controlled conditions in a glasshouse (at 24/18° C. day/night; 16 hours light; 65% humidity).
When the plants were at the vegetative stage of 2-4 leaves they were sprayed with an aqueous spray solution containing the herbicide mesotrione and 0.2% v/v of one of the carbonates A, B, C and D (see Table 7).
The spray solution was applied with a cabinet tracksprayer with a flat fan nozzle (Teejet 11002VS) and an application volume of 200 liter/ha (at 2 bar). Mesotrione was applied at either 30 or 60 grams of pesticide per hectare.
as §6, with “25” for “14 and 21”, “injury or phytotoxicity” for “injury”
The results shown in Table 10 below are mean averages over the two rates of mesotrione, the three replicates and the four plant species and are compared to the efficacy of mesotrione in the absence of an adjuvant, and mesotrione in the presence of the commercially available tank-mix adjuvant, Tween 20 ®+Rhodasurf DA/630-E® (combined in a 2:1 ratio) at 0.5% by volume.

[12] = tested on: Avena fatua, Lolium perenne, Setaria viridis and Alopecurus myosuroides; assay: Glasshouse spray test, pinoxaden with carbonates A-E (Example 7), mean over four plant species; assay type: in vivo; settings: 0.2% v/v carbonate with pinoxaden, Tables 11 and 12
Procedure: Avena fatua, Lolium perenne, Setaria viridis and Alopecurus myosuroides seeds were sown into standard soil in pots and cultivated under controlled conditions in a glasshouse (at 20/16° C. day/night; 15 hours light; 65% humidity).
When the plants were at the vegetative stage of 2-3 leaves they were sprayed with an aqueous spray solution containing the herbicide pinoxaden and 0.2% v/v of one of the carbonates A, B, C, D and E (see Table 7).
The spray solution was applied with a cabinet tracksprayer with a flat fan nozzle (Teejet 11002VS) and an application volume of 200 liter/ha (at 2 bar). Pinoxaden was applied at either 7.5 or 15 grams of pesticide per hectare.
as §6, with “on.” for “on,”, “22” for “14 and 21”, “injury or phytotoxicity” for “injury”
The results shown in Table 11 below are mean averages over the two rates of pinoxaden, the three replicates and the four plant species, and are compared to the efficacy of pinoxaden in the absence of an adjuvant, and pinoxaden in the presence of tris(2-ethylhexyl)phosphate, used as a standard adjuvant for comparative purposes (at 0.2% by […] volume).

Septoria tritici [13] = assay: Septoria tritici on wheat, isopyrazam with compound E (Example 8); assay type: in vivo; settings: 0.1% v/v compound E with isopyrazam, Table 13
Procedure: as §1, with “isopyrazam” for “epoxiconazole”
as §2, with “13” for “14”, “isopyrazam” for “epoxiconazole”

Fc1ccc([C@]2(Cn3cncn3)O[C@H]2c2ccccc2Cl)cc1 (racemic) [Epoxiconazole]
Mean % infection (Septoria tritici [1]; wheat leaf area infected 12 days after spray, epoxiconazole 3, 10, 30 and 100 mg/l, adjuvant 0.1% by volume, mean over four rates, four replicates): 40.0%

CS(=O)(=O)NC(=O)c1cc(Oc2ccc(C(F)(F)F)cc2Cl)ccc1[N+](=O)[O-] [Fomesafen]
Mean percentage kill ABUTH (Abutilon theophrasti [2]): 23.3%
Mean percentage kill CHEAL (Chenopodium album [3]): 58.3%
Mean percentage kill SETVI (Setaria viridis [4]): 19.2%
Mean percentage kill, Mean across species [5]: 29.0 C %
Mean percentage kill COMBEN (COMBEN): 15.0%

COc1cc(OC)nc(NC(=O)NS(=O)(=O)c2ncccc2C(=O)N(C)C)n1 [Nicosulfuron]
Mean percentage kill, Mean across species [6]: 49.0 B %
Mean percentage kill ABUTH (Abutilon theophrasti [7]): 48.3%
Mean percentage kill DIGSA (Digitaria sanguinalis): 31.7%
Mean percentage kill CHEAL (Chenopodium album [8]): 36.7%
Mean percentage kill SETVI (Setaria viridis [9]): 79.2%
Mean % Phytotoxicity ([10]; Table 8: nicosulfuron 15 or 60 g/ha, compounds A-D 0.2% by volume): 36.46%
Mean % Phytotoxicity ([10]; Table 9: nicosulfuron 15 or 60 g/ha, compound E 0.2% by volume): 28.3%

CCOC(=O)OCC(COC(=O)OCC)OC(=O)OCC [compound A, Glycerol-(CO3-ethyl)3]
Adjuvant effect on efficacy of mesotrione (in words) [11]: particularly effective at increasing the efficacy of mesotrione compositions
Adjuvant effect on efficacy of nicosulfuron (in words) [10]: increase the efficacy of nicosulfuron compositions

CCCCC(CC)COC(=O)OCC(COC(=O)OCC(CC)CCCC)OC(=O)OCC(CC)CCCC (stereo not drawn) [compound B, Glycerol-(CO3-2-ethylhexy1)3]
Adjuvant effect on efficacy of mesotrione (in words) [11]: particularly effective at increasing the efficacy of mesotrione compositions
Adjuvant effect on efficacy of pinoxaden (in words) [12]: most effective at increasing the efficacy of the pinoxaden composition
Adjuvant effect on efficacy of nicosulfuron (in words) [10]: increase the efficacy of nicosulfuron compositions

Glycerol-(6EO-CO3-2- ethylhexyl)3 [compound C]
Adjuvant effect on efficacy of nicosulfuron (in words) [10]: particularly effective as adjuvants for nicosulfuron

Glycerol-(6EO-CO3- phenyl)3 [compound D]
Adjuvant effect on efficacy of nicosulfuron (in words) [10]: particularly effective as adjuvants for nicosulfuron

Oleyl 10EO-(CO3-2- ethylhexyl) [compound E]
Effect on infection by S. tritici versus epoxiconazole without adjuvant (in words) (Septoria tritici [1]; 0.1% v/v compound E with epoxiconazole, Table 14): significant reduction in the percentage of infection by S. tritici
Adjuvant effect on efficacy of pinoxaden (in words) [12]: effective as an adjuvant for pinoxaden
Effect on infection by S. tritici versus isopyrazam without adjuvant (in words) (Septoria tritici [13]): significant reduction in the percentage of infection by S. tritici
Adjuvant effect on efficacy of nicosulfuron (in words) [10]: particularly effective adjuvant for nicosulfuron
